The record followed here is US12440435B2, “Solubilization of poorly soluble cooling substances” (SYMRISE AG, priority 2018, dated 2025).

A short description of this data set: Dissolving the cooling agent in a solvent with stepwise heating, then cooling to room temperature and observing crystallisation. Format: physicochemical.

Molecules are shown by their SMILES.

On to `COc1ccc(NC(=O)[C@@H]2C[C@H](C)CC[C@H]2C(C)C)cc1` [(1R,2S,5R)-N-(4-methoxyphenyl)-5-methyl-2-(1-methylethyl)-cyclohexane-carboxamide], for which, for the setting “in 2-hydroxypropyl (2-isopropyl-5-methyl-cyclohexyl) carbonate, (2-isopropyl-5-methyl-cyclohexyl) 2-hydroxypropanoate or a mixture of both, based on the total weight of the composition”, the “amount of cooling agent that can be dissolved” value was “up to 12 % by weight”. In addition, where the note is “medium-chain triglycerides as solvent, even at 60° C.”, the “solubility in medium-chain triglycerides” value is “insoluble”.
